# The source made the active and inactive calls. No cut-off for these calls is given here.
# Tests used:
# ECa-109 cell line [1] = test: Induction of apoptosis in human EC109 cells assessed as increase in phosphorylated MKK4 expression incubated for 24 hrs by Western blot analysis; format: functional, cell-based
# [2] = Toxicity in BALB/c mouse assessed as HGB at 40 mg/kg, ip administered once daily for 14 days (reference value: 153.20 +/- 3.87 g/L); format: organism-based; conditions: in vivo, 336 h, time 14 day
# ECa-109 cell line [3] = test: Induction of apoptosis in human EC109 cells assessed as increase in cleaved caspase 3 expression after 24 hrs by Western blot analysis; format: functional, cell-based
# ECa-109 cell line [4] = test: Induction of apoptosis in human EC-109 cells xenografted in BALB/c mouse assessed as decrease in Bcl-2 expression in tumor tissue at 20 to 40 mg/kg, ip QD for 14 days by Western blotting analysis relative to control; format: functional, organism-based; conditions: dose 20-40 mg/kg, time 14.0 day
# HUVEC [5] = test: Cytotoxicity against HUVEC assessed as reduction in survival rate at 0 to 8 uM by SRB assay; format: cell-based; conditions: human, TDE = time-dependent effect, dose 0-8 µM
# ECa-109 cell line [6] = test: Antiproliferative activity against human EC109 cells assessed as inhibition of cell growth incubated for 72 hrs by SRB assay; format: functional, cell-based; conditions: ECa-109, 72 h
# ECa-109 cell line [7] = test: Induction of apoptosis in human EC-109 cells xenografted in BALB/c mouse assessed as increase in cytochrome C in tumor tissue at 40 mg/kg, ip QD for 14 days by Western blotting analysis relative to control; format: functional, organism-based; conditions: time 14.0 day
# [8] = Toxicity in BALB/c mouse assessed as RDW at 40 mg/kg, ip administered once daily for 14 days (reference value: 14.18 +/- 0.26 %); format: organism-based; conditions: in vivo, 336 h, time 14 day
# HUVEC [9] = test: Cytotoxicity against HUVEC assessed as reduction in survival rate after 24 to 72 hrs by SRB assay; format: cell-based; conditions: human, time 24-72 hrs
# [10] = Toxicity in BALB/c mouse assessed as MCV at 40 mg/kg, ip administered once daily for 14 days (reference value: 49.90 +/- 0.37 fL); format: organism-based; conditions: in vivo, 336 h, time 14 day
# ECa-109 cell line [11] = test: Induction of apoptosis in human EC-109 cells xenografted in BALB/c mouse assessed as increase in Bax/Bcl-2 ratio in tumor tissue at 20 to 40 mg/kg, ip QD for 14 days by Western blotting analysis relative to control; format: functional, organism-based; conditions: dose 20-40 mg/kg, time 14.0 day
# ECa-109 cell line [12] = test: Induction of apoptosis in human EC-109 cells xenografted in BALB/c mouse assessed as increase in cleaved caspase 3 in tumor tissue at 40 mg/kg, ip QD for 14 days by Western blotting analysis relative to control; format: functional, organism-based; conditions: time 14.0 day
# ECa-109 cell line [13] = test: Induction of apoptosis in human EC109 cells assessed as increase in cleaved PARP expression after 24 hrs by Western blot analysis; format: functional, cell-based
# ECa-109 cell line [14] = test: Induction of apoptosis in human EC109 cells assessed as reduction in Bcl-2 expression at 3 uM incubated for 24 hrs in presence of N-acetylcysteine by Western blot analysis; format: functional, cell-based
# ECa-109 cell line [15] = test: Induction of apoptosis in human EC-109 cells assessed as apoptotic rate at 0.75 uM after 48 hrs by Annexin V-FITC/propidium iodide staining based flow cytometry (reference value: 3.2 %); format: functional
# ECa-109 cell line [16] = test: Induction of apoptosis in human EC-109 cells assessed as apoptotic rate at 1.5 uM after 48 hrs by Annexin V-FITC/propidium iodide staining based flow cytometry (reference value: 3.2 %); format: functional
# [17] = Toxicity in BALB/c mouse assessed as effect on creatinine content at 20 to 40 mg/kg, ip administered once daily for 14 days; format: organism-based; conditions: in vivo, 336 h, dose 20-40 mg/kg, time 14 day
# ECa-109 cell line [18] = test: Induction of apoptosis in human EC109 cells assessed as increase in Bad expression after 24 hrs by Western blot analysis; format: functional, cell-based
# ECa-109 cell line [19] = test: Induction of morphological changes in human EC109 cells assessed as appearance of contracted and rounded cells; format: functional, cell-based
# ECa-109 cell line [20] = test: Induction of apoptosis in human EC109 cells assessed as increase in Bax/Bcl2 ratio at 0.75 to 3 uM after 24 hrs by Western blot analysis; format: functional, cell-based; conditions: dose 0.75-3 µM
# ECa-109 cell line [21] = test: Induction of apoptosis in human EC109 cells assessed as increase in phosphorylated JNK expression incubated for 24 hrs by Western blot analysis; format: functional, cell-based
# ECa-109 cell line [22] = test: Induction of morphological changes in human EC109 cells assessed as decrease in number of cells; format: functional, cell-based
# MGC-803 = test: Antiproliferative activity against human MGC-803 cells assessed as inhibition of cell growth incubated for 72 hrs by SRB assay; format: functional, cell-based; conditions: MGC-803, 72 h
# ECa-109 cell line [23] = test: Induction of morphological changes in human EC109 cells assessed as appearance of contracted and rounded cells in presence of N-acetylcysteine; format: functional, cell-based
# ECa-109 cell line [24] = test: Induction of apoptosis in human EC109 cells assessed as increase in cleaved caspase 9 expression after 24 hrs by Western blot analysis; format: functional, cell-based
# ECa-109 cell line [25] = test: Induction of apoptosis in human EC109 cells assessed as change in phosphorylated MKK4 expression at 3 uM incubated for 24 hrs in presence of N-acetylcysteine by Western blot analysis; format: functional, cell-based
# ECa-109 cell line [26] = test: Induction of apoptosis in human EC109 cells assessed as increase in BimEL expression after 24 hrs by Western blot analysis; format: functional, cell-based
# [27] = Toxicity in BALB/c mouse assessed as RDW at 20 mg/kg, ip administered once daily for 14 days (reference value: 14.18 +/- 0.26 %); format: organism-based; conditions: in vivo, 336 h, time 14 day
# [28] = Toxicity in BALB/c mouse assessed as effect on uric acid content at 20 to 40 mg/kg, ip administered once daily for 14 days; format: organism-based; conditions: in vivo, 336 h, dose 20-40 mg/kg, time 14 day
# [29] = Toxicity in BALB/c mouse assessed as abnormalities in liver at 20 to 40 mg/kg, ip administered once daily for 14 days by HE staining based assay; format: organism-based; conditions: in vivo, 336 h, dose 20-40 mg/kg, time 14 day
# ECa-109 cell line [30] = test: Induction of apoptosis in human EC109 cells assessed as change in phosphorylated JNK expression at 3 uM incubated for 24 hrs in presence of N-acetylcysteine by Western blot analysis; format: functional, cell-based
# [31] = Toxicity in BALB/c mouse assessed as abnormalities in heart at 20 to 40 mg/kg, ip administered once daily for 14 days by HE staining based assay; format: organism-based; conditions: in vivo, 336 h, dose 20-40 mg/kg, time 14 day
# ECa-109 cell line [32] = test: Antitumor activity against human EC109 cells xenografted in nude BALB/c mouse assessed as reduction in tumor weight at 40 mg/kg, ip administered every day for 14 days; format: functional, organism-based; conditions: time 14.0 day
# ECa-109 cell line [33] = test: Induction of apoptosis in human EC109 cells assessed as increase in intracellular ROS level at 3 uM preincubated with N-acetylcysteine for 4 hrs followed by compound addition and incubated for 24 hrs by DCFH-DA staining based flow cytometry analysis (reference value: 0.6 %); format: functional
# ECa-109 cell line [34] = test: Induction of apoptosis in human EC109 cells assessed as increase in BimS expression after 24 hrs by Western blot analysis; format: functional, cell-based
# GES1 = test: Cytotoxicity against human GES1 cells assessed as reduction in survival rate at 0 to 8 uM by SRB assay; format: cell-based; conditions: ges1, 8 µM, TDE = time-dependent effect, dose 0-8 µM
# ECa-109 cell line [35] = test: Induction of apoptosis in human EC-109 cells assessed as apoptotic rate at 3 uM after 24 hrs by Annexin V-FITC/propidium iodide staining based flow cytometry (reference value: 5.3 %); format: functional
smiles,measurement,setting,value
C=C1C(=O)[C@@]23[C@H](O)C[C@@H]4C(C)(C)CCC[C@@]4(COC(C)=O)[C@@H]2[C@@H](O)C[C@H]1[C@H]3OC(=O)c1ccc(CCl)cc1,Activity,ECa-109 cell line [1],Dose-dependent effect
same,Activity,[2],144.4 g/L
same,Activity,ECa-109 cell line [3],Dose-dependent effect
same,Activity,ECa-109 cell line [4],Active
same,Activity,HUVEC [5],Tde
same,IC50,ECa-109 cell line [6],130 nM
same,Activity,ECa-109 cell line [7],Active
same,Activity,[8],14.73%
same,Activity,HUVEC [9],Dose-dependent effect
same,Activity,[10],49.36 fL
same,Activity,ECa-109 cell line [11],Active
same,Activity,ECa-109 cell line [12],Active
same,Activity,ECa-109 cell line [13],Dose-dependent effect
same,Activity,ECa-109 cell line [14],inactive
same,Activity,ECa-109 cell line [15],78.9%
same,Activity,ECa-109 cell line [16],93.1%
same,Activity,[17],Non-Toxic
same,Activity,ECa-109 cell line [18],Dose-dependent effect
same,Activity,ECa-109 cell line [19],Active
same,Activity,ECa-109 cell line [20],Active
same,Activity,ECa-109 cell line [21],Dose-dependent effect
same,Activity,ECa-109 cell line [22],Active
same,IC50,MGC-803,200 nM
same,Activity,ECa-109 cell line [23],inactive
same,Activity,ECa-109 cell line [24],Dose-dependent effect
same,Activity,ECa-109 cell line [25],inactive
same,Activity,ECa-109 cell line [26],Dose-dependent effect
same,Activity,[27],14.32%
same,Activity,[28],Non-Toxic
same,Activity,[29],Non-Toxic
same,Activity,ECa-109 cell line [30],inactive
same,Activity,[31],Non-Toxic
same,inhibition,ECa-109 cell line [32],Active
same,Activity,ECa-109 cell line [33],0.1%
same,Activity,ECa-109 cell line [34],Dose-dependent effect
same,inhibition (INH),GES1,Tde
same,Activity,ECa-109 cell line [35],45.4%
